Measured values from patent publication US20080194485A1, “Detection and Use of Prolylcarboxypeptidase” (YALE UNIVERSITY, priority 2004, published 2008).
Residues, ends and D or L forms follow the SMILES beside them. *: point of attachment. Cbz = O=C(OCc1ccccc1)*

Assays:
ob/ob mice [1] = assay: IP injection of Z-PP, food intake in ob/ob mice; type: in vivo, mouse
Protocol: For this study 10 ob/ob mice were used. Mice were injected at the beginning of the dark phase intraperitoneally with 2 doses of 5 mg Z-PP every 12 hours and food intake was measured every 12 hours after the last injection. Control mice were injected at the same times and with the same volume of vehicle. Note that for Z-PP doses lower than 5 mg were ineffective in reducing food intake.

wild type mice = assay: IP administration of α-MSH and MTII, food intake in wild type mice; type: in vivo, mouse; conditions: 200 nmol ip
Protocol: Wild type and PRCP KO mice were used in this study. Animals were single caged and injected with saline at the beginning of the dark phase for 3 days. For each mouse, food intake was measured at 4, 12 and 24 hours after the injection. After 3 days, animals were divided in 6 groups: 1) wild type mice receiving 200 nmol MTII in saline; 2) wild type mice receiving 200 nmol α-MSH in saline; 3) wild type mice receiving saline; 4) PRCP KO mice receiving 200 nmol of MTII in saline; 5) PRCP KO mice receiving 200 nmol α-MSH; 6) PRCP KO mice receiving saline.

fasted rats = assay: ICV injection of α-MSH and α-MSH1-12, food intake in fasted rats; type: in vivo, rat; conditions: 2.5 μg ICV, 12 hour-fasted rats
Protocol: Eighteen male rats (200-250 gr) were used in this study. Animals with a third ventricle cannulation were purchased from Taconic Farms Inc. Rats were single caged and divided in 3 groups: animals injected with saline, animals injected with 2.5 μg of […]-MSH and animals injected with 2.5 μg of α-MSH1-12. All the rats were fasted overnight. The next morning, the animals were injected and a known amount of food was given and measured after 2 hours from re-feeding (Abbott et al., 2000).

[2] = molecular target: T1, rPRCP51 (recombinant PRCP) (Homo sapiens, UniProt P42785); assay: Substrate inhibition assay: rPRCP51-induced prekallikrein (PK) activation; type: biochemical; conditions: at 1 mM peptide
T1 construct: Human PRCP cDNA, lacking the first 391 base pairs of PRCP (Prcpnt391-1845); BiP secretion signal (from vector pMT/BiP/V5-His C) (N); His tag (from vector pMT/BiP/V5-His C) (C); made in house; host or cells: Schneider 2 (Drosophila S2) cells
T1 sequence (P42785 46-496): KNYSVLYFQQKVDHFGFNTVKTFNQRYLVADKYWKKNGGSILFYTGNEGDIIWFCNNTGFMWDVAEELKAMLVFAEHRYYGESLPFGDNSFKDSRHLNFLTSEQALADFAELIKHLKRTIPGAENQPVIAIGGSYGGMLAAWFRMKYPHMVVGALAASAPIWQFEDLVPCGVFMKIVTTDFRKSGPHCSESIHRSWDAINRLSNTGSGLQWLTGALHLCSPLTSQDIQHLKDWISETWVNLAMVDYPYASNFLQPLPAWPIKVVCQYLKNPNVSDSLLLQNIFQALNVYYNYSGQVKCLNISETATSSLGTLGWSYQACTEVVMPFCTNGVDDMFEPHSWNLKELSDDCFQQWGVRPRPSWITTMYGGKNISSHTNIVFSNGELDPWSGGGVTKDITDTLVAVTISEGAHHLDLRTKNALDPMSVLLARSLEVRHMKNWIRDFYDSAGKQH
Protocol: Panel A: Increasing concentration of α-MSH, MSH1-12, or AgII (0.001-1 mM) were incubated with 8 nM of recombinant PRCP51 at 37° C. in microtiter plate cuvette wells with preabsorbed HK and containing 20 nM PK. The liberation of paranitroanilide (pNA) from the S2302 by the formed plasma kallikrein in the presence of the peptide was measured at 405 nm and the results are expressed as residual formed plasma kallikrein activity. The data represent the mean±SEM of three independent measurements.
pMT/BiP/V5-His C was employed as the basal plasmid in vector construction. […]
Samples containing 8 nM rPRCP51 in […] total volume were prepared in the absence or presence of increasing concentration of peptide α-MSH, MSH1-12 or AgII in HEPES carbonate buffer (137 mM NaCl, 3 mM KCl, 12 mM NaHCO3, 14.7 mM HEPES, 5.5 mM dextrose and 0.1% gelatin, pH 7.1 containing 10 mM CaCl2, and 1 mM MgCl2) in microtiter plate cuvette wells with previously absorbed HK at […] and with 20 nM PK at 37° C. The ability of purified rPRCP51 to activate PK bound to HK on plastic microtiter plates was determined in the absence or presence of increasing concentrations (0.001-1 mM) of the peptide (McCarthy et al., 2003; Shariat-Madar et al., 2002). […] The rate of hydrolysis was recorded at different concentrations of peptide and expressed as percent kallikrein activity remaining. […]

POMC-GFP neurons = assay: Whole cell patch clamp electrophysiology of POMC-GFP neurons in hypothalamic slices; type: cell-based, mouse; conditions: bath application, current clamp
Protocol: Coronal hypothalamic brain slices (˜300 μm) were prepared with a Vibratome from POMC-GFP transgenic mice. Slices were maintained at room temperature in artificial cerebrospinal fluid saturated with 95% O2 and 5% CO2. Slices were equilibrated in the recording chamber for 1 hr at 35° C. in ACSF saturated with 95% O2 and 5% CO2 prior to recordings. ACSF contains (mM): NaCl, 124; KCl, 3; CaCl2, 2; MgCl2, 2; NaH2PO4, 1.23; NaHCO3, 26; glucose, 10; pH 7.4 with NaOH. An upright fluorescence/infrared microscope with long working distance objectives (Olympus BX51WI) and fluorescence filter sets for GFP (Chroma Technology Corp) was used. Fluorescent POMC-GFP neurons were selected and a patch pipette (4-6 mega Ohm resistance) was advanced onto the surface of the neuron by a micromanipulator (Sutter 225). The pipette solution contains (in mM) K gluconate, 128; HEPES, 10; EGTA, 1; KCl, 10; MgCl2, 1; CaCl2, 0.3; (Mg)-ATP, 5; (Na)GTP, 0.3, PH.7.4. Whole cell patch clamp experiments were performed with a Multiclamp 700A amplifier (Axon Instruments, Inc). Whole cell current clamp was used to monitor the effect of α-MSH on membrane potential of recorded neurons held at resting membrane potential. […] Eletrophysiological data were analyzed with Axograph 4.9 (Axon Instruments), plotted with Igor Pro software (WaveMetrics, Lake Oswego, Oreg., USA) and presented as the mean±SEM. […]

rats = assay: ICV injection of B-PP, food intake in rats; type: in vivo, rat
Protocol: Twelve male rats (200-250 gr) were used in this study. Animals with a third ventricle cannulation were purchased from Taconic Farms Inc. […] A known amount of food was given to the animals and weighted every 24 hours.

ob/ob mice [3] = assay: IP injection of B-PP, food intake in ob/ob mice; type: in vivo, mouse; conditions: 400 μg systemically (ip)
Protocol: For this study 10 ob/ob mice were used. Mice were injected at the beginning of the dark phase intraperitoneally with 2 doses of […] of B-PP every 24 hours and food intake was measured before each injection and every 24 hours after the last administration. Control mice were injected at the same times and with same volume of vehicle.

`O=C[C@@H]1CCCN1C(=O)[C@@H]1CCCN1C(=O)OCc1ccccc1` [Z-PP, N-benzyloxycarbonyl-prolyl-prolinal] (Cbz-Pro-Pro-aldehyde) was tested, and the “food intake compared to vehicle controls” value (ob/ob mice [1]; 5 mg ip, after 24 hours from the last injection) was “no difference”, the “effect on food intake” value (ob/ob mice [1]; 5 mg ip, ob/ob mice) was “suppress food intake, but with lower efficacy than that of B-PP” and the “effect in reducing food intake” value (ob/ob mice [1]; doses lower than 5 mg ip, ob/ob mice) was “ineffective”.

“Ac-Nle^4-c[Asp^5, D-Phe^7, Lys^10] α-MSH-(4-10)-NH2 [MTII]” was tested, and the “food intake compared to 100% controls” value (wild type mice) was 35.5%.

For “Ac-STSMEHFRWGKP-COOH (Ac-STSMEHFRWGKP-OH) [α-MSH1-12, putative product of PRCP hydrolysis of α-MSH, lacks the C-terminal Val]”, the “effect on food intake compared to saline controls” value (fasted rats) was “did not significantly affect food intake”, the food intake (fasted rats; 2 hours from re-feeding) was 8.89 ± 0.90 g and the “inhibition of rPRCP51 activity” value [2] was “about 20%”. The “hyperpolarization of POMC membrane potential” value (POMC-GFP neurons) was “undetectable”.

In the case of “t-butyl carbamate (BOC)-prolyl prolinal [B-PP]”, the “food intake, percent” value (rats; after 24 hours from the administration, controls 94.91%) is reported as 36.7%, the “food intake, percent” value (rats; after 48 hours from the administration, controls 97.67%) is reported as 89.24% and the “effect on body weight gain” value (ob/ob mice [3]) is reported as “suppressed”. The “effect on food intake” value (ob/ob mice [3]) was “suppressed”.
